Values of other authors, collected in patent US20240082151A1, “ORALLY IMPLANTABLE DRUG DELIVERY DEVICE” (priority 2019, published 2024).

How the values were obtained:
HIV = conditions: target for effective HIV prevention
[1] = another study (ref 34)
[2] = target TFV-DP in PBMCs 50 fmol per million cells; PB-PK simulation (ref 33)

steady state plasma CAB concentration, four times the protein adjusted IC90 (PA-IC90) (HIV) | SMILES | TAF release rate estimated to be protective [1] | linear subcutaneous TAF release rate estimated to lead to protective TFV-DP PBMC concentrations [2]
0.66 µg/mL | C[C@H]1CO[C@@H]2Cn3cc(C(=O)NCc4ccc(F)cc4F)c(=O)c(O)c3C(=O)N12 [CAB, Cabotegravir] |  | 
 | CC(C)OC(=O)[C@H](C)N[P@](=O)(CO[C@H](C)Cn1cnc2c(N)ncnc21)Oc1ccccc1 [TAF, Tenofovir alafenamide] | ca. 0.3 mg d^−1 | 0.5 mg/day
